# Reference: article PMC9845330 (Communications Biology, 2023)
# Non-standard residues stand in square brackets, D forms with d. Residues, ends and D or L forms follow the SMILES beside them. *: point of attachment. X1 = O=C(CCCC[C@@H]1SC[C@@H]2NC(=O)N[C@@H]21)NCCCOCCOCCOCCCN*; PEG12 = NCCOCCOCCOCCOCCOCCOCCOCCOCCOCCOCCOCCOCCC(=O)O
# Assays:
# HBEC cells = experiment: In vitro saporin delivery, cell viability (CellTiter-GLO); type: cell-based, human; conditions: saporin conjugate, 6 h exposure, viability at 72 h
# Method: The ability of MGS4_V8-saporin conjugate to induce cell death was determined.
# Biotinylated peptide was conjugated to streptavidin-saporin (Advanced Targeting Systems Bio, San Diego, CA) in a 1:1 molar ratio. Increasing doses of peptide-drug conjugate in triplicate were incubated on the cells for 6 h at 37 °C. The drug was removed and replaced with complete growth media. After 72 h, cell viability was measured using CellTiter-GLO® (Promega, Madison, WI). Cell viability was normalized to untreated cells. IC50s were calculated using GraphPad Prism® using log(agonist) vs. response–Variable slope (four parameters). […]
# (§1) M GS4_V4 (non-acetylated, panel a) and M GS4_V8 (acetylated, panel b ) were incubated in 100% human serum for 0 and 48-hours. Serum proteins were precipitated, and the peptide was analyzed by analytical
# (§2) HPLC. The mass of the peptide and degradation products were determined by MALDI MS and are […]
# (§3) MGS4_V8, MGS4_V9, or MGS4_V10 were conjugated with streptavidin-Alexa Fluor 650 and were incubated with the indicated cell line for 1 hour. Non-internalized peptide was rem ov ed, and the mean number of peptides internalized per cell was determined to calculate the EC50. […]
# (§4) Supplemental Figure 4 : Peptide-Streptavidin conjugates are nontoxic to cells. a. […] After 72 hours, viability was measured. […]
# Stability in human serum = type: in vitro ADME; conditions: 100% human serum, 48 h, 37 °C, serum proteins precipitated, analytical HPLC, MALDI TOF/TOF MS
# Method: To address if acetylation is effective in reducing serum degradation of MGS4, acetylated (MGS4_V8) and non-acetylated (MGS4_V4) peptides were dissolved in human serum and incubated for 48 h at 37 °C. The peptides were monitored by analytical HPLC, and products were verified via MALDI TOF/TOF™ MS. […] Instead, a mixture of peptide fragments is detected, none of which correspond to the mass of the starting peptide (Supplemental Table 1 and Supplemental Fig. 2). The major products are shorter fragments corresponding to the loss of the five N-terminal amino acids. Fragments related to QSFYT-PEG11, SFYT-PEG11 and FYT-PEG11 are observed.
# Supplemental Figure 1. […]
# as §1, §2, §3, §4
smiles,measurement,setting,value
CC(=O)N[C@@H](Cc1ccccc1)C(=O)N[C@@H](Cc1c[nH]cn1)C(=O)N[C@@H](C)C(=O)N[C@H](C(=O)N1CCC[C@H]1C(=O)N[C@@H](CCC(N)=O)C(=O)N[C@@H](CO)C(=O)N[C@@H](Cc1ccccc1)C(=O)N[C@@H](Cc1ccc(O)cc1)C(=O)N[C@H](C(=O)NCCOCCOCCOCCOCCOCCOCCOCCOCCOCCOCCOCCOCCC(=O)N[C@@H](CCC(=O)NCCCOCCOCCOCCCNC(=O)CCCC[C@@H]1SC[C@@H]2NC(=O)N[C@@H]21)C(N)=O)[C@@H](C)O)C(C)C [MGS4_V8] (Ac-FHAVPQSFYT[PEG12]E(X1)-NH2),stable in human serum for,,> 48 h
same,IC50,HBEC cells,do not reach 50% cell viability
same,peptide after incubation in human serum,Stability in human serum,only full-length peptide observed
